# Experimental data: ChEMBL document CHEMBL1146730, “New pyrazolo[3,4-d]pyrimidines endowed with A431 antiproliferative activity and inhibitory properties of Src phosphorylation” (Bioorg Med Chem Lett, 2004)
# Key:
# A-431 [1] = experiment: Inhibitory effect on phospho-Src (Tyr416) after EGF (100 uM) stimulation of A431 cells (38); details: Homo sapiens
# A-431 [2] = experiment: Inhibitory effect on phospho-Src/nonphospho after EGF (100 uM) stimulation of A431 cells (21); details: Homo sapiens
# A-431 [3] = experiment: cells; details: Homo sapiens
# Description: Inhibitory effect on nonphospho-Src after EGF (100 uM) stimulation of A431 cells (control=178)
# A-431 [4] = experiment: Tested for antiproliferative activity against human A431 cells; assay type: functional, cell-based
SMILES,IC50 (A-431 [4]) [µM],other results
CSc1nc(NCc2ccccc2)c2cnn(CC(Cl)c3ccccc3)c2n1 (configuration not stated),–,IC50 (A-431 [1]): 32 µM; IC50 (A-431 [2]): 21 µM
CSc1nc(N2CCOCC2)c2cnn(CC(Cl)c3ccccc3)c2n1 (configuration not stated),–,IC50 (A-431 [1]): 34 µM; IC50 (A-431 [2]): 24 µM
CC(C)(C)n1nc(-c2ccc(Cl)cc2)c2c(N)ncnc21,–,IC50 (A-431 [1]): 22 µM; IC50 (A-431 [3]): 131 µM; IC50 (A-431 [2]): 17 µM
CCCCNc1nc(SCC)nc2c1cnn2CC(Cl)c1ccccc1 (configuration not stated),–,IC50 (A-431 [1]): 53 µM; IC50 (A-431 [2]): 33 µM
CSc1nc(N2CCCCC2)c2cnn(/C=C/c3ccccc3)c2n1,54,–
CCSc1nc(N2CCOCC2)c2cnn(/C=C/c3ccccc3)c2n1,50,–
C(=C\n1ncc2c(N3CCCCC3)ncnc21)/c1ccccc1,69,–
CSc1nc(N2CCOCC2)c2cnn(/C=C/c3ccccc3)c2n1,36,–
C(=C\n1ncc2c(N3CCOCC3)ncnc21)/c1ccccc1,59,–
C(=C\n1ncc2c(N3CCCC3)ncnc21)/c1ccccc1,63,–
CSc1nc(NCc2ccccc2)c2cnn(/C=C/c3ccccc3)c2n1,40,–
CCCNc1ncnc2c1cnn2/C=C/c1ccccc1,61,–
COc1cc2ncnc(Nc3cccc(Cl)c3)c2cc1OC [TYRPHOSTIN AG-1478],20,–

# Now from value to molecule, other results behind:
IC50 (A-431 [4]) [µM],SMILES,other results
27,CCCCNc1nc(SC)nc2c1cnn2CC(Cl)c1ccccc1 (configuration not stated),–
176,CCSc1nc(N2CCCCC2)c2cnn(CC(Cl)c3ccccc3)c2n1 (configuration not stated),–
124,CCSc1nc(NCc2ccccc2)c2cnn(CC(Cl)c3ccccc3)c2n1 (configuration not stated),–
91,CCCCNc1ncnc2c1cnn2/C=C/c1ccccc1,–
